Reference: PubChem BioAssay (NCI)
Where “and” joins values, the source holds several entries; their conditions need not be identical. Equal entries are not always repeated.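 Step 1: Grow cells in 96-well plates. Step 2: Expose to compound for 48 hours at 5 concentrations. Step 3: Interpolate endpoints linearly; if unreached, use highest concentration. Here, GI50 denotes the concentration required for 50% inhibition of growth. TGI is the concentration that stops growth completely.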

Assays:
Assay in all cases: NCI anticancer screen, dose series, 48 h
[1] = test system: HCT-15 colon
[2] = test system: OVCAR-3 ovarian
[3] = test system: UO-31 renal
[4] = test system: A549 NSCLC
[5] = test system: DMS 273 small cell lung
[6] = test system: 786-0 renal
[7] = test system: NCI-H522 lung
[8] = test system: HT29 colon
[9] = test system: EKVX NSCLC
[10] = test system: MDA-MB-435
[11] = test system: HCC-2998 colon
[12] = test system: XF 498 CNS
[13] = test system: LOX IMVI melanoma
[14] = test system: SR leukemia
[15] = test system: OVCAR-4 ovarian
[16] = test system: OVCAR-5 ovarian
[17] = test system: SK-OV-3 ovarian
[18] = test system: RPMI-8226 leukemia
[19] = test system: SN12C renal
[20] = test system: NCI-H460 lung
[21] = test system: K-562 leukemia
[22] = test system: COLO 205 colon
[23] = test system: UACC-62 melanoma
[24] = test system: TK-10 renal
[25] = test system: IGROV1 ovarian
[26] = test system: SK-MEL-5 melanoma
[27] = test system: SK-MEL-2 melanoma
[28] = test system: HOP-62 NSCLC
[29] = test system: HL-60(TB) leukemia
[30] = test system: SNB-19 CNS
[31] = test system: LXFL 529 NSCLC
[32] = test system: SW-620 colon
[33] = test system: M14 melanoma
[34] = test system: ACHN renal
[35] = test system: U251 CNS
[36] = test system: OVCAR-8 ovarian
[37] = test system: HCT-116 colon
[38] = test system: NCI-H23 lung
[39] = test system: A498 renal
[40] = test system: RXF-631 renal
[41] = test system: KM12 colon
[42] = test system: UACC-257 melanoma
[43] = test system: SK-MEL-28 melanoma
[44] = test system: NCI-H226 lung
[45] = test system: RXF 393 renal
[46] = test system: HOP-18 NSCLC
[47] = test system: SNB-75 CNS
[48] = test system: MOLT-4 leukemia
[49] = test system: SF-295 CNS
[50] = test system: CCRF-CEM leukemia
[51] = test system: MALME-3M melanoma
[52] = test system: SF-268 CNS
[53] = test system: SNB-78 CNS
[54] = test system: SF-539 CNS
[55] = test system: HOP-92 NSCLC
[56] = test system: CAKI-1 renal
[57] = test system: KM20L2 colon
[58] = test system: M19-MEL melanoma
[59] = test system: DMS 114 small cell lung
[60] = test system: DLD-1 colon

## CC(C)S(=O)(=O)ON1C(=O)c2ccc(N(C)C)cc2C1=O
[1]
  TGI: 32.3 µM
[2]
  TGI: 24.5 µM
[3]
  TGI: 34.5 µM
[4]
  TGI: 58 µM
[5]
  TGI: 35.6 µM
[6]
  GI50: 19.5 µM
  TGI: 42 µM
[7]
  GI50: 1.79 µM
  TGI: 4.42 µM and 3.85 µM
[8]
  TGI: > 58 µM
[9]
  TGI: 41.7 µM
[10]
  TGI: 4.75 µM
[11]
  TGI: 18 µM
[12]
  TGI: 32.3 µM
[13]
  GI50: 9.69 µM
  TGI: 29.6 µM
[14]
  GI50: 0.752 µM
  TGI: 3.18 µM and 9.78 µM
[15]
  GI50: 6.01 µM
  TGI: 33.7 µM
[16]
  TGI: 42 µM
[17]
  TGI: > 78.6 µM
[18]
  GI50: 1.71 µM
  TGI: 6.46 µM and 9.12 µM
[19]
  TGI: 34.3 µM
[20]
  TGI: 37.3 µM
[21]
  GI50: 2.48 µM
  TGI: 21.3 µM
[22]
  GI50: 8.36 µM
  TGI: 21.5 µM
[23]
  TGI: 33.7 µM
[24]
  TGI: 37.1 µM
[25]
  TGI: 43 µM
[26]
  GI50: 15.3 µM
  TGI: 31.4 µM
[27]
  GI50: 19.1 µM
  TGI: 45 µM
[28]
  TGI: > 63.4 µM
[29]
  GI50: 0.417 µM
[30]
  TGI: > 100 µM
[31]
  TGI: 25.1 µM
[32]
  GI50: 4.01 µM
  TGI: 38.6 µM
[33]
  TGI: 40 µM
[34]
  TGI: 33.7 µM
[35]
  TGI: 30.3 µM
[36]
  GI50: 5.05 µM
  TGI: 6.47 µM and 63.7 µM
[37]
  GI50: 2.44 µM
  TGI: 9.13 µM and 30.8 µM
[38]
  TGI: > 59.2 µM
[39]
  TGI: > 60.7 µM
[40]
  TGI: 19.7 µM
[41]
  TGI: 46.4 µM
[42]
  TGI: 38.8 µM
[43]
  TGI: 56.1 µM
[44]
  TGI: > 60.9 µM
[45]
  GI50: 5.34 µM
  TGI: 17.9 µM
[46]
  TGI: 27.3 µM
[47]
  GI50: 8.66 µM
  TGI: 39.3 µM
[48]
  GI50: 0.4 µM
  TGI: 4.57 µM and > 22.8 µM
[49]
  TGI: > 67.1 µM
[50]
  GI50: 0.29 µM
  TGI: 1.06 µM and 9.21 µM
[51]
  GI50: 20.5 µM
  TGI: 8.68 µM and 53.5 µM
[52]
  TGI: 66.8 µM
[53]
  TGI: > 100 µM
[54]
  TGI: 37.4 µM
[55]
  GI50: 28 µM
  TGI: 54.5 µM
[56]
  GI50: 13.6 µM
  TGI: 28.7 µM
[57]
  TGI: 41.2 µM

## O=C(O)c1ccccc1NS(=O)(=O)c1ccc([N+](=O)[O-])cc1
[1]
  TGI: > 100 µM
[2]
  TGI: > 100 µM
[3]
  TGI: > 100 µM
[4]
  TGI: > 100 µM
[5]
  TGI: > 100 µM
[6]
  TGI: > 100 µM
[7]
  TGI: > 100 µM
[8]
  TGI: > 100 µM
[9]
  TGI: > 100 µM
[11]
  TGI: > 100 µM
[12]
  TGI: > 100 µM
[13]
  TGI: > 100 µM
[15]
  TGI: > 100 µM
[16]
  TGI: > 100 µM
[17]
  TGI: > 100 µM
[18]
  TGI: > 100 µM
[19]
  TGI: > 100 µM
[20]
  TGI: > 100 µM
[21]
  TGI: > 100 µM
[22]
  TGI: > 100 µM
[23]
  TGI: > 100 µM
[24]
  TGI: > 100 µM
[25]
  TGI: > 100 µM
[26]
  TGI: > 100 µM
[27]
  TGI: > 100 µM
[28]
  TGI: > 100 µM
[30]
  TGI: > 100 µM
[31]
  TGI: > 100 µM
[32]
  TGI: > 100 µM
[33]
  TGI: > 100 µM
[34]
  TGI: > 100 µM
[35]
  TGI: > 100 µM
[36]
  TGI: > 100 µM
[37]
  TGI: > 100 µM
[38]
  TGI: > 100 µM
[40]
  TGI: > 100 µM
[41]
  TGI: > 100 µM
[42]
  TGI: > 100 µM
[43]
  TGI: > 100 µM
[44]
  TGI: > 100 µM
[45]
  TGI: > 100 µM
[46]
  TGI: > 100 µM
[47]
  TGI: > 100 µM
[48]
  TGI: > 100 µM
[49]
  TGI: > 100 µM
[50]
  TGI: > 100 µM
[51]
  TGI: > 100 µM
[52]
  TGI: > 100 µM
[53]
  TGI: > 100 µM
[54]
  TGI: > 100 µM
[56]
  TGI: > 100 µM
[57]
  TGI: > 100 µM

## CC1C=CC(O)[C@]2(CO)CC3(CCC12)OCCO3 (stereo partly drawn)
[2]
  TGI: > 100 µM
[3]
  TGI: > 100 µM
[4]
  TGI: > 100 µM
[5]
  TGI: > 100 µM
[6]
  TGI: > 100 µM
[7]
  TGI: > 100 µM
[8]
  TGI: > 100 µM
[9]
  TGI: > 100 µM
[11]
  TGI: > 100 µM
[12]
  TGI: > 100 µM
[14]
  TGI: > 100 µM
[15]
  TGI: > 100 µM
[16]
  TGI: > 100 µM
[17]
  TGI: > 100 µM
[19]
  TGI: > 100 µM
[20]
  TGI: > 100 µM
[21]
  TGI: > 100 µM
[23]
  TGI: > 100 µM
[24]
  TGI: > 100 µM
[25]
  TGI: > 100 µM
[26]
  TGI: > 100 µM
[27]
  TGI: > 100 µM
[58]
  TGI: > 100 µM
[28]
  TGI: > 100 µM
[29]
  TGI: > 100 µM
[30]
  TGI: > 100 µM
[31]
  TGI: > 100 µM
[32]
  TGI: > 100 µM
[33]
  TGI: > 100 µM
[34]
  TGI: > 100 µM
[35]
  TGI: > 100 µM
[36]
  TGI: > 100 µM
[37]
  TGI: > 100 µM
[59]
  TGI: > 100 µM
[38]
  TGI: > 100 µM
[39]
  TGI: > 100 µM
[40]
  TGI: > 100 µM
[41]
  TGI: > 100 µM
[42]
  TGI: > 100 µM
[43]
  TGI: > 100 µM
[44]
  TGI: > 100 µM
[45]
  TGI: > 100 µM
[47]
  TGI: > 100 µM
[48]
  TGI: > 100 µM
[49]
  TGI: > 100 µM
[50]
  TGI: > 100 µM
[51]
  TGI: > 100 µM
[52]
  TGI: > 100 µM
[53]
  TGI: > 100 µM
[54]
  TGI: > 100 µM
[55]
  TGI: > 100 µM
[56]
  TGI: > 100 µM
[57]
  TGI: > 100 µM
[60]
  TGI: > 100 µM
